Test results published in patent US20070254863A1 (priority 2006, published 2007).
Where two headings read alike, the source gives them in different places.

Columns and labels:
[1] = molecular target: T1, hamster SUR1 (Cricetus cricetus, UniProt Q09427); experiment: In vitro binding affinity to rodent KATP channels: SUR1 ([3H]glibenclamide displacement, COS cell membranes); settings: hamster SUR1 in COS cell membranes; read-out: Affinity to SUR 1 (converted)
T1 construct: expressed in transfected cells; host or cells: COS-1 cells, transient (pcDNA vector)
Experimental: 1. In Vitro Binding Affinity of the Test Compounds to Rodent KATP Channels
Competitive binding experiments were performed to characterize the affinity of the test compounds for the binding sites for sulfonylureas and KATP channel openers (KCOS) on hamster SUR1. To assess the affinity for the sulfonylurea site, membranes from COS-cells transiently expressing hamster SUR1 were incubated in the presence of [^3H]glibenclamide with increasing concentrations of test compounds. […] For each test compound four displacement curves were measured (+/−MgATP from the human and hamster isoform). Per curve 9-15 distinct concentrations were tested covering the relevant range. All measurements were repeated at least 5 times in independent experiments.
(§1) [^3H]glibenclamide (specific activity 51 Ci mmol^−1) was obtained from NEN (Dreieich, Germany). Where needed, stock solutions were prepared in dimethylsulfoxide with a final solvent concentration in the media below 1%.
(§2) SUR- or Kir6.x isoforms were used either subcloned in the pcDNA (hamster SUR1, mouse Kir6.2) or pCMV vector (rat SUR2A, SUR2B).
(§3) For transfection, the cells were incubated 4 hours in a Tris-buffered salt solution containing DNA (5-10 μg/ml) plus DEAE-dextran (1 mg/ml), 2 min in HEPES-buffered salt solution plus dimethylsulfoxide (10%) and 4 hours in DMEM-HG plus chloroquine (100 μM). Cells were then returned to DMEM-HG plus 10% FCS. […] For binding experiments, resuspended membranes (final protein concentration 5-50 μg/ml) were incubated in “Tris-buffer” (50 mM, pH 7.4) containing either [^3H]glibenclamide (final concentration 0.3 nM or 3 nM and nonspecific binding defined by 100 nM or 1 μM glibenclamide for SUR1 or SUR2Y1205S-isoforms, respectively) or [^3H]P1075 (final concentration 3 nM, nonspecific binding defined by 100 μM pinacidil) and increasing concentrations of the test compounds. The free Mg^2+ concentration were kept close to 0.7 mM. […] Incubations were carried out for 1 h at room temperature and were terminated by rapid filtration through Whatman GF/B filters.
(§4) The inhibition constant (Ki value) of the test substances was calculated from the respective IC50 value, and was stated as the negative logarithmic value thereof (pKi).

[2] = molecular target: rat SUR2A (Rattus norvegicus, UniProt Q63563); experiment: In vitro binding affinity to rodent KATP channels: SUR2A ([3H]P1075 / [3H]glibenclamide displacement, COS cell membranes)
Experimental: Therefore, two strategies can be used to detect binding to the sulfonylurea site on SUR2A.
Membranes from COS-cells transiently expressing rat SUR2A were incubated in the presence of the radioligands with increasing concentrations of test compounds as described above. […] For each test compound four displacement curves were measured (displacement of [^3H]P1075 from the rat isoform of the wild type receptor and displacement of [^3H]glibenclamide from the rat isoform of SUR2AY1205S). Per curve 9-15 distinct concentrations were tested covering the relevant range. All measurements were repeated at least 5 times in independent experiments.
as §1, §2, §3, §4

rat SUR2A, sequence (Q63563 whole entry): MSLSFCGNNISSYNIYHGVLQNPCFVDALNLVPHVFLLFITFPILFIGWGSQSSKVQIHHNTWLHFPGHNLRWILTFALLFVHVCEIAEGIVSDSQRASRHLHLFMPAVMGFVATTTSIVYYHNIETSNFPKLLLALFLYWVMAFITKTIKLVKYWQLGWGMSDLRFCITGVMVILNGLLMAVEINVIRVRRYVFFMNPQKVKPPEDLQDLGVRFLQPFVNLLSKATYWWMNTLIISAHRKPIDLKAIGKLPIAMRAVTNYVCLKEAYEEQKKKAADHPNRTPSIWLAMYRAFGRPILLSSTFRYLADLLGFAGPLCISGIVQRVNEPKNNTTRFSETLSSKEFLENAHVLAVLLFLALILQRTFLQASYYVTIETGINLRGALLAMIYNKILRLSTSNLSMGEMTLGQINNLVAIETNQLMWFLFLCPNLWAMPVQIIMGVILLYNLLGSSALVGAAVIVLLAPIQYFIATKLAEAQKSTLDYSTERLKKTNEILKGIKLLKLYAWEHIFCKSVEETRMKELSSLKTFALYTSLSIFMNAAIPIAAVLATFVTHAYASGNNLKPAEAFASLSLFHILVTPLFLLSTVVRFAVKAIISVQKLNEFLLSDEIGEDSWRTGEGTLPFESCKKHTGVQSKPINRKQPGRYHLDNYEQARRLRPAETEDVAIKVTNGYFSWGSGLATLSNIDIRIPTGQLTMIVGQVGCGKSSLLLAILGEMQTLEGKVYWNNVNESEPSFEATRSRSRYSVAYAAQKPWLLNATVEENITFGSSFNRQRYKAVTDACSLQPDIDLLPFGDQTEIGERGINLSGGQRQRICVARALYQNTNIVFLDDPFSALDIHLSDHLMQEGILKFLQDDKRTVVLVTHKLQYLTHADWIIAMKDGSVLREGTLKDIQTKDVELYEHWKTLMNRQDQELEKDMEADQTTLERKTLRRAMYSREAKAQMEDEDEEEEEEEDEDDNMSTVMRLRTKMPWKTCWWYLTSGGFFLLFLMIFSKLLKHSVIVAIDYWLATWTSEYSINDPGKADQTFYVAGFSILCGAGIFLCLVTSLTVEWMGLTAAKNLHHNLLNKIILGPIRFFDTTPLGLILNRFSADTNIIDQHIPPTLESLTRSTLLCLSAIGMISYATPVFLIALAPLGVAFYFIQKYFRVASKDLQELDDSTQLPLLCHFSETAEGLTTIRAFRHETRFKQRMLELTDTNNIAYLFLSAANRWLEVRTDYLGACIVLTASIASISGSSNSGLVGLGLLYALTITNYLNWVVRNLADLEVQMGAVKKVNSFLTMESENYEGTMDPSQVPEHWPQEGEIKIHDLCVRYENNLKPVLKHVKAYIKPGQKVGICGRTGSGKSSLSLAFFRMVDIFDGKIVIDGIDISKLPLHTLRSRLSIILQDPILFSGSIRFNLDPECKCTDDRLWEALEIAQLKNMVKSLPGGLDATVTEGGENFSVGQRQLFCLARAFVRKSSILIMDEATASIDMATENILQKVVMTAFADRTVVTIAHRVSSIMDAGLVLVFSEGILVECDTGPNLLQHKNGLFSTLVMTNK
T1 sequence (Q09427 whole entry): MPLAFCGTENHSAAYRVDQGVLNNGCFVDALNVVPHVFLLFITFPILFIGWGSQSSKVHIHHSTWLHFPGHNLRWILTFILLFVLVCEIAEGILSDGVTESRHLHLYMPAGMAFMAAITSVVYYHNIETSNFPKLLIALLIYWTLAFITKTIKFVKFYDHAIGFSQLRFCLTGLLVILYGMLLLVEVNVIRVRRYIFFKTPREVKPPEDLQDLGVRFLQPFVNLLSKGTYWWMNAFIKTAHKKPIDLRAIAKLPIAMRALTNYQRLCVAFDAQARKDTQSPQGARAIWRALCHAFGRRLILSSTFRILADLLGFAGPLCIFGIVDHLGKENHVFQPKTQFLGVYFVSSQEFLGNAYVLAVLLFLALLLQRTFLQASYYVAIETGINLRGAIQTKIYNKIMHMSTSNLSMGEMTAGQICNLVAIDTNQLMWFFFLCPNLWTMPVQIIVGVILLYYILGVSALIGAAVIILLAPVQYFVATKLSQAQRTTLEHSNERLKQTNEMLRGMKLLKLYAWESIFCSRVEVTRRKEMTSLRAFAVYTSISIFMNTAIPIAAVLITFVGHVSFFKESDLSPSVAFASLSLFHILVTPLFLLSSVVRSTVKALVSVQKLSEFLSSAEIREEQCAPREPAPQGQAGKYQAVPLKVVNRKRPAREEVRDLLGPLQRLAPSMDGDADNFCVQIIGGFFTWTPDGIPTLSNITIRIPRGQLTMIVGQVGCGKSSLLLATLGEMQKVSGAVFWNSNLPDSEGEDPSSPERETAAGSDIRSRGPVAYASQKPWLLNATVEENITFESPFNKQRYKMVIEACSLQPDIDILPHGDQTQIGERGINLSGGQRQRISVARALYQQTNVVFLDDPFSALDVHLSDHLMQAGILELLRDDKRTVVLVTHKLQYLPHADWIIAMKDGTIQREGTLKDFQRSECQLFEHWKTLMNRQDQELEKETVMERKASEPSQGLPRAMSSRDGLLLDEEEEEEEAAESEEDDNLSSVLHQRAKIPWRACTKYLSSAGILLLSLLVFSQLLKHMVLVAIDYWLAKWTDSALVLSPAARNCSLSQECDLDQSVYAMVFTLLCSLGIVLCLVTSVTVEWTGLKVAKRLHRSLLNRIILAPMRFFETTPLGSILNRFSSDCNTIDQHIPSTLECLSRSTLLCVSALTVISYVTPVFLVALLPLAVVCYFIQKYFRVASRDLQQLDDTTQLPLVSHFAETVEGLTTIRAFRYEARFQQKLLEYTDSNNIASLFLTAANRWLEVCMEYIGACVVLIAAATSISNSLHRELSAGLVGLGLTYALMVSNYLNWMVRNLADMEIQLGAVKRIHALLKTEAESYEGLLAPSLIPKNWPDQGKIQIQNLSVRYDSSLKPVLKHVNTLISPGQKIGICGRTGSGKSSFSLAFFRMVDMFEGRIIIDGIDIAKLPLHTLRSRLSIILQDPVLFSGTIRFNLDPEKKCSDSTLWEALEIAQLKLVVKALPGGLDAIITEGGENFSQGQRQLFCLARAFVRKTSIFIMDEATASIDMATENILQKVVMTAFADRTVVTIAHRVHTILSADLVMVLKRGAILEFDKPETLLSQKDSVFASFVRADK

Row | SMILES | Ki [1] | pKi [2] | pKi ([2]; rat SUR2A in COS cell membranes)
1 | CCc1c(C(=O)NN2CCCCC2)nc(-c2ccccc2Cl)n1-c1ccc(Cl)cn1 [2-(2-Chloro-phenyl)-1-(5-chloro-pyridin-2-yl)-5-ethyl-1H-imidazole-4-carboxylic acid piperidin-1-ylamide] | 100 µM | 4.8 | –
2 | CCCCC(C)(O)c1nc(-c2ccc(Cl)cc2Cl)n(-c2ccc(Cl)cc2)c1C (centres unmarked) [2-[1-(4-Chloro-phenyl)-2-(2,4-dichloro-phenyl)-5-methyl-1H-imidazol-4-yl]-hexan-2-ol] | 1.58 µM | 5.3 | –
3 | CCC1CN=C(N2CC(c3ccccc3)C(c3ccc(Cl)cc3)=N2)O1 (centres unmarked) [2-[3-(4-Chloro-phenyl)-4-phenyl-4,5-dihydro-pyrazol-1-yl]-5-ethyl-4,5-dihydro-oxazole] | 3.16 µM | 4.4 | –
4 | Cn1c(C(=O)NC2CCCCC2)nc(-c2ccc(Cl)cc2)c1-c1ccc(Cl)cc1Cl [4-(4-Chloro-phenyl)-5-(2,4-dichloro-phenyl)-1-methyl-1H-imidazole-2-carboxylic acid cyclohexylamide] | 100 µM | – | 4.7
5 | O=C(NS(=O)(=O)c1ccc(Cl)cc1)N1CC(c2ccccc2)C(c2ccc(Cl)cc2)=N1 (centres unmarked) [4-Chloro-N-[3-(4-chloro-phenyl)-4-phenyl-4,5-dihydro-pyrazole-1-carbonyl]-benzenesulfonamide] | 3.16 µM | 4.8 | –
6 | N#CCCNC(=NS(=O)(=O)c1ccc(Cl)cc1)N1CC(c2ccccc2)C(c2ccc(Cl)cc2)=N1 (centres unmarked) [4-Chloro-N-[[3-(4-chloro-phenyl)-4-phenyl-4,5-dihydro-pyrazol-1-yl]-(2-cyano-ethylamino)-methylene]-benzene sulfonamide] | 0.2 µM | 5.9 | –
7 | CCNCCN/C(=N\S(=O)(=O)c1ccc(Cl)cc1)N1CC(c2ccccc2)C(c2ccc(Cl)cc2)=N1 (centres unmarked) [4-Chloro-N-[[3-(4-chloro-phenyl)-4-phenyl-4,5-dihydro-pyrazol-1-yl]-(2-ethylamino-ethylamino)-methylene]-Benzenesulfonamide] | 7.94 µM | 5.3 | –
8 | O=S(=O)(N=C(NCCCCN1CCCC1)N1CC(c2ccccc2)C(c2ccc(Cl)cc2)=N1)c1ccc(Cl)cc1 (centres unmarked) [4-Chloro-N-[[3-(4-chloro-phenyl)-4-phenyl-4,5-dihydro-pyrazol-1-yl]-(4-pyrrolidin-1-yl-butylamino)-methylene]-benzenesulfonamide] | 50.1 µM | 5.4 | –
9 | CON(C)C(=NS(=O)(=O)c1ccc(Cl)cc1)N1CC(c2ccccc2)C(c2ccc(Cl)cc2)=N1 (centres unmarked) [4-Chloro-N-[[3-(4-chloro-phenyl)-4-phenyl-4,5-dihydro-pyrazol-1-yl]-(methoxy-methyl-amino)-methylene]-benzenesulfonamide] | 1.26 µM | 5.9 | –
10 | O=S(=O)(N=C(NC1CCNCC1)N1CC(c2ccccc2)C(c2ccc(Cl)cc2)=N1)c1ccc(Cl)cc1 (centres unmarked) [4-Chloro-N-[[3-(4-chloro-phenyl)-4-phenyl-4,5-dihydro-pyrazol-1-yl]-(piperidin-4-ylamino)-methylene]-benzenesulfonamide] | 31.6 µM | 4.6 | –
11 | CON/C(=N\S(=O)(=O)c1ccc(Cl)cc1)N1C[C@H](c2cccc(F)c2)C(c2ccc(Cl)cc2)=N1 [4-Chloro-N-{[3-(4-chloro-phenyl)-4-(3-fluoro-phenyl)-4,5-dihydro-pyrazol-1-yl]-methoxyamino-methylene}-benzenesulfonamide] | 2.51 µM | 6.1 | –
12 | N#Cc1cc(-c2ccc(Br)cc2)n(-c2ccc(Cl)cc2Cl)n1 [5-(4-Bromo-phenyl)-1-(2,4-dichloro-phenyl)-1H-pyrazole-3-carbonitrile] | 100 µM | 5.4 | –
13 | O=C(NN1CCCC1)c1nc(-c2ccc(Cl)cc2)n(-c2ccc(Cl)cc2Cl)n1 [5-(4-Chloro-phenyl)-1-(2,4-dichloro-phenyl)-1H-[1,2,4]triazole-3-carboxylic acid pyrrolidin-1-ylamide] | 100 µM | 4.4 | –
